Patent US11419862B2, “Quinoline derivative for treatment of nasopharyngeal carcinoma” (CHIA TAI TIANQING PHARMACEUTICAL GROUP CO., LTD., priority 2018, dated 2022)
Structures can show the parent of a compound that is named as a salt.

System: nasopharyngeal carcinoma
Experiment: Efficacy on nasopharyngeal carcinoma: patient case reports treated orally with capsules of the compound of Example 1
Assay type: in vivo, human
Design: key to evaluation according to RECIST 1.1: CR: complete remission, which means that target lesions of tumors have disappeared and no new lesions appear which is maintained for at least 4 weeks; PR: partial remission, which means 30% or more decrease in the sum of the diameters of target lesions of tumors than the baseline level, which is maintained for at least 4 weeks; PD: the progression of disease, which means 20% or more increase in the diameters of target lesions of tumors than the baseline level; SD: stable disease, which means the sum of diameters of all target leisions neither shrink to qualify for PR nor sufficient increase to qulify for PD
Procedure: During or after radiotherapy, the patients are treated with the capsules of the compound of Example 1 at 12 mg qd. The administration is continuously performed for 2 weeks and rest for 1 week, followed by continuously administrating for 2 weeks and resting for 1 week as a cycle. The target lesions are regularly evaluated, and the treatment regimen is terminated according to the evaluation results.
Subsequently, the patient took orally the capsules of 12 mg of the compound of Example 1 once per day for treatment (continuously administrating for 2 weeks and resting for 1 week as a treatment cycle). […] After 4 cycles of treatment, evaluated as PR according to RECIST 1.1, and the sum of the target lesions was 10 mm, which was reduced by 9 mm from the baseline. After 8 cycles of treatment, the sum of the target lesions was 9 mm, which was reduced by 10 mm from the baseline.
From Mar. 2, 2017, the patient started to take orally the capsules of 12 mg of the compound of Example 1 once per day for treatment (continuously administrating for 2 weeks and resting for 1 week as a treatment cycle). On Apr. […] The treatment with the capsules of the compound of Example 1 was continued.
Three months later, the patient started to take orally the capsules of 12 mg of the compound of Example 1 once per day for treatment (continuously administrating for 2 weeks and resting for 1 week as a treatment cycle). […] The treatment with the capsules of the compound of Example 1 was continued.

[1] = Example 4, patient, 12 mg once per day orally, after 2 cycles
[2] = Example 4, patient, 12 mg once per day orally, after 4 cycles
[3] = Example 4, patient, 12 mg once per day orally, after 8 cycles
[4] = Example 5, patient, 12 mg once per day orally, after 2 cycles
[5] = Example 5, patient, 12 mg once per day orally, after 4 cycles
[6] = Example 5, patient, 12 mg once per day orally, after 6 cycles
[7] = Example 5, patient, 12 mg once per day orally, after 12 cycles
[8] = Example 5, patient, 12 mg once per day orally, after 16 cycles
[9] = Example 6, patient, 12 mg once per day orally, after 2 cycles
[10] = Example 6, patient, 12 mg once per day orally, after 4 cycles

In the case of `COc1cc2c(Oc3ccc4[nH]c(C)cc4c3F)ccnc2cc1OCC1(N)CC1` [Example 1, 1-[[[4-fluoro-2-methyl-1H-indol-5-yl)oxy-6-methoxyquinolin-7-yl]oxy]methyl]cyclopropylamine dihydrochloride], the “evaluation according to RECIST 1.1” value (Example 4, patient, 12 mg once per day orally, 2 weeks on/1 week off, after 2 cycles) is reported as “PR (partial remission, which means 30% or more decrease in the sum of the diameters of target lesions of tumors than the baseline level, which is maintained for at least 4 weeks)”, the “reduction of sum of the target lesions from the baseline” value (from here on “reduction of sum of the target lesions”) [1] is reported as 7 mm and the “sum of the target lesions” value [1] is reported as 12 mm. The “evaluation according to RECIST 1.1” value [2] was “PR (partial remission, which means 30% or more decrease in the sum of the diameters of target lesions of tumors than the baseline level, which is maintained for at least 4 weeks)”, the “reduction of sum of the target lesions” value [2] was 9 mm and the “sum of the target lesions” value [2] was 10 mm. The “reduction of sum of the target lesions” value [3] was 10 mm, the “sum of the target lesions” value [3] was 9 mm and the “adverse reaction during the administration” value (Example 4, patient, 12 mg once per day orally, relieved after medication and dosage reduction) was “Grade 3 hypertension”. The “evaluation according to RECIST 1.1” value (Example 5, patient, 12 mg once per day orally, 2 weeks on/1 week off, after 2 cycles) was “PR (partial remission, which means 30% or more decrease in the sum of the diameters of target lesions of tumors than the baseline level, which is maintained for at least 4 weeks)”, the “reduction of sum of the target lesions” value [4] was 17 mm and the “sum of the target lesions” value [4] was 30 mm. For the same molecule, the “evaluation according to RECIST 1.1” value [5] was “PR (partial remission, which means 30% or more decrease in the sum of the diameters of target lesions of tumors than the baseline level, which is maintained for at least 4 weeks)”, the “reduction of sum of the target lesions” value [5] was 19 mm and the “sum of the target lesions” value [5] was 28 mm. The “evaluation according to RECIST 1.1” value [6] was “PR (partial remission, which means 30% or more decrease in the sum of the diameters of target lesions of tumors than the baseline level, which is maintained for at least 4 weeks)”, the “reduction of sum of the target lesions” value [6] was 23 mm and the “sum of the target lesions” value [6] was 24 mm. For the same molecule, the “evaluation according to RECIST 1.1” value [7] was “PR (partial remission, which means 30% or more decrease in the sum of the diameters of target lesions of tumors than the baseline level, which is maintained for at least 4 weeks)”, the “reduction of sum of the target lesions” value [7] was 23 mm and the “sum of the target lesions” value [7] was 24 mm. For the same molecule, the “evaluation according to RECIST 1.1” value [8] was “PR (partial remission, which means 30% or more decrease in the sum of the diameters of target lesions of tumors than the baseline level, which is maintained for at least 4 weeks)”, the “reduction of sum of the target lesions” value [8] was 24 mm and the “sum of the target lesions” value [8] was 23 mm. For the same molecule, the “evaluation according to RECIST 1.1” value (Example 6, patient, 12 mg once per day orally, 2 weeks on/1 week off, after 2 cycles) was “SD”, the “reduction of sum of the target lesions” value [9] was 18 mm and the “sum of the target lesions” value [9] was 47 mm. The “evaluation according to RECIST 1.1” value [10] was “PR (partial remission, which means 30% or more decrease in the sum of the diameters of target lesions of tumors than the baseline level, which is maintained for at least 4 weeks)”, the “reduction of sum of the target lesions” value [10] was 23 mm and the “sum of the target lesions” value [10] was 42 mm. For the same molecule, the “adverse reaction during the administration” value (Example 6, patient, alleviated by antihypertensive drugs and dose reduction to 10 mg and 8 mg) was “Grades 2 and 3 hypertension”.
